Structures can show the parent of a compound that is named as a salt. Where two headings read alike, the source gives them in different places.
Experiments:
[1] = Test 2: blood pressure depression up to 24 hours and duration until 50% recovery, oral; assay type: in vivo, Male, spontaneously hypertension-developing rats; conditions: for response vs control in vivo at 25 mg/kg: Rattus norvegicus; for Duration 50% recovery: duration until pressure recovered to 50% from the maximum depression value
Experimental: (§1) Male, spontaneously hypertension-developing rats of ages of 10 to 11 weeks (in groups of 3 to 5 animals) were used in the test. For blood pressure determination, systolic pressure was measured without anesthesia by an indirect tail-cuff method using a sphygmomanometer (PE-300, Narco Bio-System).

[2] = Test 1: blood pressure depression effect, systolic pressure, indirect tail-cuff method, oral; assay type: in vivo, Male, spontaneously hypertension-developing rats; conditions: for Systolic blood pressure (mmHg) After 1 hr / Systolic blood pressure (mmHg) After 4 hrs / Systolic blood pressure (mmHg) After 7 hrs: 25 mg/kg oral, average value; for Systolic blood pressure (mmHg) After 1 hr: 1 hr after administration; for Systolic blood pressure (mmHg) After 4 hrs: 4 hrs after administration; for Systolic blood pressure (mmHg) After 7 hrs: 7 hrs after administration
Experimental: Blood pressure depression effect
as §1
The compound to be tested was orally administered (at a dose of 25 mg/kg in terms of the active compound) as a 10% HCO-60 (polyoxyethylene hardened castor oil) suspension. Blood pressure was determined 1, 4 and 7 hours after the administration.
Further, the blood pressure depression effect of the fumarate of the compound obtained in Example 28 described later was examined in the same manner as described above.

[3] = 1h after oral administration, percent based on that before administration (100), read-out: Depression value (%) of blood pressure, 1h
[4] = 2h after oral administration, percent based on that before administration (100), read-out: Depression value (%) of blood pressure, 2h
[5] = 4h after oral administration, percent based on that before administration (100), read-out: Depression value (%) of blood pressure, 4h
[6] = 7h after oral administration, percent based on that before administration (100), read-out: Depression value (%) of blood pressure, 7h
[7] = 24h after oral administration, percent based on that before administration (100), read-out: Depression value (%) of blood pressure, 24h
[8] = maximum lowering, percent based on that before administration (100), read-out: Depression value (%) of blood pressure, Max

SMILES	response vs control in vivo at 25 mg/kg [1, 3] [%]	response vs control in vivo at 25 mg/kg [1, 4] [%]	response vs control in vivo at 25 mg/kg [1, 5] [%]	response vs control in vivo at 25 mg/kg [1, 6] [%]	response vs control in vivo at 25 mg/kg [1, 7] [%]	response vs control in vivo at 25 mg/kg [1, 8] [%]	Duration 50% recovery [1] [h]	Systolic blood pressure (mmHg) After 1 hr [2] [mmHg]	Systolic blood pressure (mmHg) After 4 hrs [2] [mmHg]	Systolic blood pressure (mmHg) After 7 hrs [2] [mmHg]	time required for 50% recovery from maximum depression value (%) of blood pressure ([2]; same manner as Test 1, oral) [h]	maximum depression value (%) of blood pressure from the value (100%) before administration ([2]; same manner as Test 1, oral, before administration = 100%) [%]	response vs control in vivo at 25 mg/kg ([1]; po, 1 h, read-out: Depression value (%) of blood pressure, 1h) [%]	response vs control in vivo at 25 mg/kg ([1]; po, 2 h, read-out: Depression value (%) of blood pressure, 2h) [%]	response vs control in vivo at 25 mg/kg ([1]; po, 4 h, read-out: Depression value (%) of blood pressure, 4h) [%]	response vs control in vivo at 25 mg/kg ([1]; po, 7 h, read-out: Depression value (%) of blood pressure, 7h) [%]	response vs control in vivo at 25 mg/kg ([1]; po, 24 h, read-out: Depression value (%) of blood pressure, 24h) [%]	response vs control in vivo at 25 mg/kg ([1]; read-out: Depression value (%) of blood pressure, Max) [%]
COC(=O)C1=C(C)NC(C)=C(C(=O)OCCN(C)Cc2ccccc2)C1c1cccc(C#N)n1 (stereo not drawn) [Example 1, 2,6-Dimethyl-4-(6-cyano-2-pyridyl)-1,4-dihydropyridine-3,5-dicarboxylicacid 3-β-(N-benzyl-N-methylamino)ethyl ester 5-methyl ester]	69	74	84	88	98	69	4.4	115	137	148								
COC(=O)C1=C(C)NC(C)=C(C(=O)OCCN(C)Cc2ccccc2)C1c1cccc(Br)n1 (stereo not drawn) [Example 3, 2,6-Dimethyl-4-(6-bromo-2-pyridyl)-1,4-dihydropyridine-3,5-dicarboxylicacid 3-β-(N-benzyl-methylamino)ethyl ester 5-methyl ester]	63	72	86	83	99	63	3.5	126	143	161								
COC(=O)C1=C(C)NC(C)=C(C(=O)OCCN(C)Cc2ccccc2)C1c1cc([N+](=O)[O-])ccn1 (stereo not drawn) [Example 5, 2,6-Dimethyl-4-(4-nitro-2-pyridyl)-1,4-dihydropyridine-3,5-dicarboxylic acid 3-β-(N-benzyl-N-methylamino)ethyl ester 5-methyl ester]	67	82	93	90	104	67	2.3	156	135	140								
COC(=O)C1=C(C)NC(C)=C(C(=O)OCCN(C)Cc2ccccc2)C1c1ccnc(C(F)(F)F)c1 (stereo not drawn) [Example 6, 2,6-Dimethyl-4-(2-trifluoromethyl-4-pyridyl)-1,4-dihydropyridine-3,5-dicarboxylic acid 3-β-(N-benzyl-N-methylamino)ethyl ester 5-methyl ester]								139	145	145								
COC(=O)C1=C(C)NC(C)=C(C(=O)OCCN(C)Cc2ccccc2)C1c1cccnc1C(F)(F)F (stereo not drawn) [Example 28 fumarate]											16.2	67						
COC(=O)C1=C(C)NC(C)=C(C(=O)OC)C1c1ccccc1[N+](=O)[O-] [Nif, 2,6-dimethyl-4-(2-nitrophenyl)-1,4-dihydropyridine-3,5-dicarboxylic acid dimethyl ester, reference compound]							19.4						72	73	77	70	90	70

— patent US4849429A, “Certain 1,4-dihydro-2,6-dilower-alkyl-4-(mono-substituted pyridyl) useful for treating coronary artery or cerebral artery disease” (The Green Cross Corporation, priority 1985, dated 1989)
